Test results: PubChem BioAssay (NCI)
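Values below derive from 48-hour exposures of cells grown in 96-well plates, with endpoints linearly interpolated between the two concentrations bracketing the appropriate inhibition level. At the TGI there is no net growth.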

Assays:
Experiment in all cases: DTP human tumour cell line panel, 48 h
KM12 colon = test system: KM12 colon
SNB-75 CNS = test system: SNB-75 CNS
COLO 205 colon = test system: COLO 205 colon
SN12C renal = test system: SN12C renal
SK-MEL-2 melanoma = test system: SK-MEL-2 melanoma
HOP-92 NSCLC = test system: HOP-92 NSCLC
SF-268 CNS = test system: SF-268 CNS
IGROV1 ovarian = test system: IGROV1 ovarian
SW-620 colon = test system: SW-620 colon
T-47D breast = test system: T-47D breast
SR leukemia = test system: SR leukemia
NCI-H460 lung = test system: NCI-H460 lung
NCI-H23 lung = test system: NCI-H23 lung
K-562 leukemia = test system: K-562 leukemia
LOX IMVI melanoma = test system: LOX IMVI melanoma
HL-60(TB) leukemia = test system: HL-60(TB) leukemia
PC-3 prostate = test system: PC-3 prostate
NCI-H226 lung = test system: NCI-H226 lung
CCRF-CEM leukemia = test system: CCRF-CEM leukemia
MALME-3M melanoma = test system: MALME-3M melanoma

SMILES	TGI (KM12 colon) [µM]	TGI (SNB-75 CNS) [µM]	TGI (COLO 205 colon) [µM]	TGI (SN12C renal) [µM]	TGI (SK-MEL-2 melanoma) [µM]	TGI (HOP-92 NSCLC) [µM]	TGI (SF-268 CNS) [µM]	TGI (IGROV1 ovarian) [µM]	TGI (SW-620 colon) [µM]	TGI (T-47D breast) [µM]	TGI (SR leukemia) [µM]	TGI (NCI-H460 lung) [µM]	TGI (NCI-H23 lung) [µM]	TGI (K-562 leukemia) [µM]	TGI (LOX IMVI melanoma) [µM]	TGI (HL-60(TB) leukemia) [µM]	TGI (PC-3 prostate) [µM]	TGI (NCI-H226 lung) [µM]	TGI (CCRF-CEM leukemia) [µM]	TGI (MALME-3M melanoma) [µM]
N#Cc1c(NCCc2ccc(F)cc2)c2ccccc2n2c1nc1ccccc12	> 100	30.8	> 100	> 100	> 100	19.8	96.5	39.9	> 100	95.6	> 100	> 100	39.1	> 100	> 100	> 100	82.7	55.4	> 100	–
O=C1/C(=C/c2ccc(Cl)cc2)N=C(c2ccccc2)N1c1nc2ccccc2s1	> 100	> 100	–	–	88.2	> 100	> 100	> 100	> 100	> 100	> 100	> 100	> 100	> 100	> 100	18.4	> 100	> 100	> 100	–
COC(=O)[C@H]1C[C@H]1NC(=O)C(CC(=O)OCc1ccccc1)NC(=O)OCc1ccccc1 (stereo partly specified)	77.1	> 100	43.2	> 100	56.9	–	> 100	> 100	> 100	98.4	> 100	72.4	> 100	> 100	> 100	39.6	> 100	> 100	> 100	–
CCN(CC)CCCNc1nc(=O)[nH]c(C)c1C(=O)Nc1c2ccccc2nc2ccccc12	26.5	55.5	23.5	> 100	> 100	13.3	–	72.6	> 100	73.5	–	–	42.8	> 100	45.4	60.9	> 100	93.8	> 100	45.1
CCn1c(-c2ccc(F)cc2)nc2c1C(=O)c1ccccc1C2=O	> 100	> 100	> 100	> 100	–	> 100	> 100	> 100	> 100	> 100	> 100	> 100	> 100	> 100	–	> 100	> 100	> 100	> 100	> 100
C=C1CCCCCCCCCCC12SCCC2CCCCSC (stereo unspecified)	–	–	33.6	53.9	37.7	62.5	67.4	49.9	68.9	43.8	53.4	> 100	56.9	44	34.2	44.7	56.1	36.2	–	36.2
